Patent US11464772B2, “Methods of treating acute or chronic pain” (priority 2017, dated 2022)

Key:
[1] = test system: rats post spinal nerve ligation; test: Spinal nerve ligation (SNL), von Frey mechanical withdrawal (FIG. 3); assay type: in vivo, Sprague Dawley rats; conditions: oral, 100 mg/kg, 14 days post-SNL, tested 1, 2 and 4 hours
Procedure: Ligation of the L5 and L6 spinal nerves in rats leads to a robust pain state, characterized by tactile allodynia and mechanical hyperalgesia that can be assayed using the von Frey or Hargreaves assays (Kim, S. H. and Chung, J. M. Pain 50 (1992): 355-63). Sprague Dawley rats were housed in the animal vivarium 2 weeks prior to testing and housed on a 12 h light/dark cycle with food and water ad libitum. Under general anesthesia, the L5 and L6 spinal nerves on one side of the rat spine were tightly ligated using sterile surgical suture (Spinal Nerve Ligation, SNL). The incision site of each animal was then closed using standard surgical technique. Spared Nerve Injury: Animals were anesthetized by 2% isoflurane with 98% oxygen inhalation. […] The mechanical allodynia were measured at 60 minutes after administration every day (von Frey Cilia Apparatus, manufactured by Institute of Biology Bioengineering, Chinese Academy of Medical Science).
Baseline mechanical (von Frey) withdrawal responses were tested immediately before SNL surgery and 14 days after. […] Immediately after the 14-day post-surgical baseline responses were measured, Compound A (100 mg/kg), Gabapentin (100 mg/kg), or vehicle (control) were administered orally and voluntary withdrawal from von Frey mechanical stimuli were tested 1 hour, 2 hours and 4 hours later (FIG. 3). […]

[2] = test system: rats after intraplantar incision; test: Rodent paw incision, Hargreaves thermal withdrawal assay (FIG. 1); assay type: in vivo, Sprague Dawley rats; conditions: intravenous, 30 mg/kg, post-surgery baseline, tested 0.5-4 hours
Procedure: The rodent paw incision model involves inducing a surgical incision to the plantar surface of the back paw of a mouse or rat, suturing the incision closed, then testing the area proximal to the wound for changes in sensory perception, such as allodynia or hypersensitivity, at some point in time after the incision (typically 24 hours later)(Brennan T J et al. Pain. 1996 March, 64(3):493-501). Thermal (Hargreaves) and mechanical (von Frey) sensory testing is performed before and 24 hours after surgical incision of the plantar surface of the left back paw of laboratory rats, at a plantar area adjacent to the incision. […]
Plantar incision of the hind paw of the rat produces a profound local inflammatory response characterized by pain hypersensitivity (allodynia) 24 hours after surgery in rats, in similar manner to the post-operative pain observed in humans (Brennan, T. J. et al. Pain. 1996 March; 64(3):493-501). […] Three days prior to testing the compound, thermal (Hargreaves) and mechanical (von Frey) sensitivity were measured using standard techniques described below. […] The thermal sensitivities of the animals were measured before surgery and 24 hours after surgery using the Hargreaves Thermal Withdrawal Assay (FIG. 1) (Kim, S. H. and Chung, J. M. Pain 50 (1992): 355-63). […]

[3] = test system: rat models of neuropathic pain; conditions: rat models of neuropathic pain (Field et al. 1999); cited from earlier work

Compound	blocking of static and dynamic allodynia [3]	further results
NCC1(CC(=O)O)CCCCC1 [gabapentin]	–	reversal of reduced mechanical withdrawal thresholds post spinal nerve ligation [1]: reversed
CC(C)Cc1ccc(C(C)C(=O)O)cc1 (stereo not shown) [ibuprofen]	–	reversal of reductions in thermal withdrawal thresholds after intraplantar incision [2]: not reversed
CN1CC[C@]23c4c5ccc(O)c4O[C@H]2[C@@H](O)C=C[C@H]3[C@H]1C5 [morphine]	blocking only static allodynia, and not dynamic allodynia	–
CC(C)C[C@H](CN)CC(=O)O [pregablin]	blocking both types of allodynia	–
